From BigSolDB 2.1

Work on `CC(=O)Nc1ccc(O)cc1` yielded a solubility (mole fraction) (in acetone, 292.95 K) of 0.0327, a solubility (mole fraction) (in acetone, 302.85 K) of 0.0411 and a solubility (mole fraction) (in acetone, 311.95 K) of 0.0534. The solubility (mole fraction) (in acetone, 320.65 K) was 0.068, the solubility (mole fraction) (in ethanol, 295.15 K) was 0.0549 and the solubility (mole fraction) (in ethanol, 305.35 K) was 0.0662. The solubility (mole fraction) (in ethanol, 314.15 K) was 0.0737, the solubility (mole fraction) (in ethanol, 322.15 K) was 0.0898 and the solubility (mole fraction) (in ethanol, 332.95 K) was 0.116. The solubility (mole fraction) (in ethanol, 341.25 K) was 0.141, the solubility (mole fraction) (in ethanol, 350.05 K) was 0.18 and the solubility (mole fraction) (in ethanol, 360.15 K) was 0.216. The solubility (mole fraction) (in isopropanol, 293.65 K) was 0.0415, the solubility (mole fraction) (in isopropanol, 304.05 K) was 0.0509 and the solubility (mole fraction) (in isopropanol, 313.05 K) was 0.0604. For the same molecule, the solubility (mole fraction) (in isopropanol, 320.25 K) was 0.0696, the solubility (mole fraction) (in isopropanol, 325.35 K) was 0.0787 and the solubility (mole fraction) (in isopropanol, 330.25 K) was 0.0876. It also gave a solubility (mole fraction) (in isopropanol, 336.15 K) of 0.105, a solubility (mole fraction) (in isopropanol, 343.45 K) of 0.121 and a solubility (mole fraction) (in isopropanol, 348.15 K) of 0.136. It also gave a solubility (mole fraction) (in isopropanol, 353.05 K) of 0.152, a solubility (mole fraction) (in isopropanol, 356.15 K) of 0.159 and a solubility (mole fraction) (in methanol, 293.45 K) of 0.0594. For the same molecule, the solubility (mole fraction) (in methanol, 303.55 K) was 0.073, the solubility (mole fraction) (in methanol, 313.95 K) was 0.0906 and the solubility (mole fraction) (in methanol, 323.35 K) was 0.111. The solubility (mole fraction) (in methanol, 330.95 K) was 0.133, the solubility (mole fraction) (in methanol, 341.55 K) was 0.175 and the solubility (mole fraction) (in methanol, 354.15 K) was 0.229. The solubility (mole fraction) (in n-butanol, 293.05 K) was 0.0364, the solubility (mole fraction) (in n-butanol, 302.95 K) was 0.0439 and the solubility (mole fraction) (in n-butanol, 312.55 K) was 0.0526. For the same molecule, the solubility (mole fraction) (in n-butanol, 323.05 K) was 0.0659, the solubility (mole fraction) (in n-butanol, 332.55 K) was 0.0792 and the solubility (mole fraction) (in n-butanol, 343.65 K) was 0.099. It also gave a solubility (mole fraction) (in n-butanol, 353.15 K) of 0.126, a solubility (mole fraction) (in n-butanol, 362.65 K) of 0.152 and a solubility (mole fraction) (in n-pentanol, 303.55 K) of 0.038. It also gave a solubility (mole fraction) (in n-pentanol, 313.85 K) of 0.0468, a solubility (mole fraction) (in n-pentanol, 323.65 K) of 0.0571 and a solubility (mole fraction) (in n-pentanol, 333.65 K) of 0.073. The solubility (mole fraction) (in n-pentanol, 343.55 K) was 0.0893, the solubility (mole fraction) (in n-pentanol, 353.75 K) was 0.108 and the solubility (mole fraction) (in n-pentanol, 361.55 K) was 0.129. For the same molecule, the solubility (mole fraction) (in n-propanol, 293.05 K) was 0.0412, the solubility (mole fraction) (in n-propanol, 302.95 K) was 0.0501 and the solubility (mole fraction) (in n-propanol, 312.55 K) was 0.061. For the same molecule, the solubility (mole fraction) (in n-propanol, 322.55 K) was 0.0735, the solubility (mole fraction) (in n-propanol, 332.25 K) was 0.093 and the solubility (mole fraction) (in n-propanol, 342.15 K) was 0.117. For the same molecule, the solubility (mole fraction) (in n-propanol, 351.25 K) was 0.142 and the solubility (mole fraction) (in n-propanol, 359.15 K) was 0.165.
